Measured values: patent US10611740B2, “Aryl dihydro-2H-benzo[b][1,4]oxazine sulfonamide and related compounds for use as agonists of RORγ and the treatment of disease” (Lycera Corporation, priority 2015, dated 2020)

Columns and labels:
Gal4-RORγ-LBD = molecular target: T1, Gal4-RORγ-LBD (Homo sapiens, UniProt P51449); assay: Gal4-RORγ Luciferase Reporter Assay in HEK-293T Cells; format: cell-based; settings: HEK-293 cells
T1 construct: expressed in transfected cells; host or cells: HEK-293 cells (pcDNA3.1neo plasmid)
T1 sequence (P51449 269-508 limits assumed): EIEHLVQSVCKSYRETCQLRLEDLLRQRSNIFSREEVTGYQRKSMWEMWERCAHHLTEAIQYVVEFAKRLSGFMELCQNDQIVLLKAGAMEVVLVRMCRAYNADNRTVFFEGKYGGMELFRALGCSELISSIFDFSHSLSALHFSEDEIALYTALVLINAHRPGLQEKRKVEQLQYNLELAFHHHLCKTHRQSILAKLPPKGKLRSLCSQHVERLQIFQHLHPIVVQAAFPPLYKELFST
How it was run: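 HEK-293 cells were transiently co-transfected with Gal4-RORγ-LBD and pGL4.31 Gal4-luciferase, with ursolic acid added at 2 μM final. Compounds were incubated overnight at 37° C. in 0.2% DMSO and luminescence read with One-Glo. Max Response is the upper plateau of a 4-parameter logistic fit, with signal lacking ursolic acid or compound set to 100.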

RORγ-LBD = molecular target: T2, RORγ-LBD (Homo sapiens, UniProt P51449); assay: RORγ-Ligand Binding Domain (LBD) TR-FRET Assay; format: biochemical;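 as to TR-FRET Assay Max Response: 665/615 nm ratio relative to signal without ursolic acid or compound set at 100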
T2 construct: made in house; host or cells: SF9 cells (baculovirus)
T2 sequence (P51449 269-508 limits assumed): T1 sequence (P51449 269-508 limits assumed)
How it was run: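 Compounds, diluted in DMSO and then in assay buffer (1% DMSO final), were combined with His-tagged RORγ-LBD lysate at roughly 3 nM final and a 200 nM biotinylated SRC1 LXXLL peptide. Ursolic acid was included at 2 μM final. Coactivator recruitment was detected by TR-FRET.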

[1] = luciferase reporter, with 2 μM ursolic acid

Row | EC50 (Gal4-RORγ-LBD; 2 μM ursolic acid) | EC50 (RORγ-LBD) | EC50 (Gal4-RORγ-LBD; [1]) | Structure (SMILES) | Gal4-RORγ Assay Max Response (Gal4-RORγ-LBD; 2 μM ursolic acid) | TR-FRET Assay Max Response (RORγ-LBD) | Gal4-RORγ Assay Max Response (Gal4-RORγ-LBD; [1])
1 | < 500 nM | < 500 nM | – | CC(C)(C[C@H]1CN(S(=O)(=O)c2cccc(C(F)(F)F)c2)c2cc(-c3c(F)ccc(F)c3F)ccc2O1)C(=O)O [Compound 32BM, (S)-2,2-dimethyl-3-(4-((3-(trifluoromethyl)phenyl)sulfonyl)-6-(2,3,6-trifluorophenyl)-3,4-dihydro-2H-benzo[b][1,4]oxazin-2-yl)propanoic acid] | ** (The symbol “**” indicates a value in the range of greater than 90 to 150) | *** (The symbol “***” indicates a value in the range of greater than 150 to 200) | –
2 | – | < 500 nM | 500 to 5000 nM | O=C(O)CC[C@H]1CN(S(=O)(=O)c2cccc(C(F)(F)F)c2)c2cc(-c3cccc(O)c3)ccc2O1 [Compound 2AU, (S)-3-(6-(3-hydroxyphenyl)-4-((3-(trifluoromethyl)phenyl)-sulfonyl)-3,4-dihydro-2H-benzo[b][1,4]oxazin-2-yl)propanoic acid] | – | *** (The symbol “***” indicates a value in the range of greater than 150 to 200) | * (The symbol “*” indicates a value in the range of 25 to 90)
3 | – | < 500 nM | < 500 nM | CC(C)(CC[C@H]1CN(S(=O)(=O)c2cccc(C(F)(F)F)c2)c2cc(-c3cccc(C(F)(F)F)n3)ccc2O1)C(=O)O [Compound 32P, (S)-2,2-dimethyl-4-(4-((3-(trifluoromethyl)phenyl)sulfonyl)-6-(6-(trifluoromethyl)pyridin-2-yl)-3,4-dihydro-2H-benzo[b][1,4]oxazin-2-yl)butanoic acid] | – | *** (The symbol “***” indicates a value in the range of greater than 150 to 200) | ** (The symbol “**” indicates a value in the range of greater than 90 to 150)
4 | – | < 500 nM | < 500 nM | O=C(O)[C@H]1CCCN1C(=O)NCC[C@H]1CN(S(=O)(=O)c2cccc(C(F)(F)F)c2)c2cc(-c3cc(F)ccc3F)ccc2O1 [Compound 23U, ((2-((S)-6-(2,5-difluorophenyl)-4-((3-(trifluoromethyl)phenyl)-sulfonyl)-3,4-dihydro-2H-benzo[b][1,4]oxazin-2-yl)ethyl)carbamoyl)-D-proline] | – | **** (The symbol “****” indicates a value greater than 200) | ** (The symbol “**” indicates a value in the range of greater than 90 to 150)
5 | – | < 500 nM | < 500 nM | CC(C)(C[C@H]1CN(S(=O)(=O)c2cccc(C(F)(F)F)c2)c2cc(-c3cccc(F)c3F)ccc2O1)C(=O)O [Compound 32K, (S)-3-(6-(2,3-difluorophenyl)-4-((3-(trifluoromethyl)-phenyl)sulfonyl)-3,4-dihydro-2H-benzo[b][1,4]oxazin-2-yl)-2,2-dimethylpropanoic acid] | – | **** (The symbol “****” indicates a value greater than 200) | ** (The symbol “**” indicates a value in the range of greater than 90 to 150)
6 | – | < 500 nM | – | O=C(O)[C@]1(C[C@H]2CN(S(=O)(=O)c3cccc(C(F)(F)F)c3)c3cc(-c4cc(F)ccc4F)ccc3O2)CCNC1=O [Compound 77A, (S)-3-(((S)-6-(2,5-difluorophenyl)-4-((3-(trifluoromethyl)phenyl)-sulfonyl)-3,4-dihydro-2H-benzo[b][1,4]oxazin-2-yl)methyl) 2-oxopyrrolidine-3-carboxylic acid] | **** (The symbol “****” indicates a value greater than 200) | ** (The symbol “**” indicates a value in the range of greater than 90 to 150) | –
7 | – | > 10000 nM | > 10000 nM | COc1cccc(C#N)c1-c1ccc2c(c1)N(S(=O)(=O)c1cccc(C(F)(F)F)c1)C[C@H](CCC(=O)O)O2 [Compound 2BJ, (S)-3-(6-(2-cyano-6-methoxy-phenyl)-4-((3-(trifluoromethyl)-phenyl)sulfonyl)-3,4-dihydro-2H-benzo[b][1,4]oxazin-2-yl)propanoic acid] | – | – | ** (The symbol “**” indicates a value in the range of greater than 90 to 150)
8 | – | < 500 nM | < 500 nM | O=C1CC(C(=O)NC[C@H]2CN(S(=O)(=O)c3cccc(C(F)(F)F)c3)c3cc(-c4cc(F)ccc4F)ccc3O2)C1 [Compound 30AA, (S)-N-((6-(2,5-difluorophenyl)-4-((3-(trifluoromethyl)phenyl)-sulfonyl)-3,4-dihydro-2H-benzo[b][1,4]oxazin-2-yl)methyl)-3-oxocyclobutane-1-carboxamide] | – | **** (The symbol “****” indicates a value greater than 200) | * (The symbol “*” indicates a value in the range of 25 to 90)
9 | – | < 500 nM | 500 to 5000 nM | O=C(O)CC[C@H]1CN(S(=O)(=O)c2cccc(C(F)(F)F)c2)c2cc(-c3ccccc3O)ccc2O1 [Compound 2AW, (S)-3-(6-(2-hydroxyphenyl)-4-((3-(trifluoromethyl)phenyl)-sulfonyl)-3,4-dihydro-2H-benzo[b][1,4]oxazin-2-yl)propanoic acid] | – | **** (The symbol “****” indicates a value greater than 200) | ** (The symbol “**” indicates a value in the range of greater than 90 to 150)
10 | – | < 500 nM | < 500 nM | O=S(=O)(c1cccc(C(F)(F)F)c1)N1C[C@H](CCCO)Oc2ccc(-c3ccc(F)c(F)c3)cc21 [Compound 34B, (S)-3-(6-(3,4-difluorophenyl)-4-((3-(trifluoromethyl)phenyl)-sulfonyl)-3,4-dihydro-2H-benzo[b][1,4]oxazin-2-yl)propan-1-ol] | – | **** (The symbol “****” indicates a value greater than 200) | * (The symbol “*” indicates a value in the range of 25 to 90)
11 | < 500 nM | < 500 nM | – | Cc1ccc(Cl)cc1-c1ccc2c(c1)N(S(=O)(=O)c1cccc(C(F)(F)F)c1)C[C@H](CC(C)(C)C(=O)O)O2 [Compound 32AR, (S)-3-(6-(5-chloro-2-methyl-phenyl)-4-((3-(trifluoromethyl)-phenyl)sulfonyl)-3,4-dihydro-2H-benzo[b][1,4]oxazin-2-yl)-2,2-dimethylpropanoic acid] | ** (The symbol “**” indicates a value in the range of greater than 90 to 150) | ** (The symbol “**” indicates a value in the range of greater than 90 to 150) | –
12 | < 500 nM | < 500 nM | – | COc1cc(Cl)cc(-c2ccc3c(c2)N(S(=O)(=O)c2cccc(C(F)(F)F)c2)C[C@H](CC(C)(C)C(=O)O)O3)c1 [Compound 32AH, (S)-3-(6-(3-chloro-5-methoxy-phenyl)-4-((3-(trifluoromethyl)-phenyl)sulfonyl)-3,4-dihydro-2H-benzo[b][1,4]oxazin-2-yl)-2,2-dimethylpropanoic acid] | ** (The symbol “**” indicates a value in the range of greater than 90 to 150) | *** (The symbol “***” indicates a value in the range of greater than 150 to 200) | –
